According to patent publication EP1285919A1, “C10 Carbonate substituted taxanes as antitumor agents” (Florida State University Research Foundation, Inc., priority 2001, dated 2003):
Like-named read-outs stand apart in the source and are kept apart here.

What was measured:
HCT116 = assay: In vitro cytotoxicity, cell colony formation assay; assay type: cell-based; details: read-out: IN VITRO ID 50
Description: In Vitro cytotoxicity measured by the cell colony formation assay
Four hundred cells (HCT116) were plated in 60 mm Petri dishes containing 2.7 mL of medium (modified McCoy's 5a medium containing 10% fetal bovine serum and 100 units/mL penicillin and […] streptomycin). The cells were incubated in a CO2 incubator at 37 °C for 5 h for attachment to the bottom of Petri dishes. The compounds identified in Example 2 were made up fresh in medium at ten times the final concentration, and then 0.3 mL of this stock solution was added to the 2.7 mL of medium in the dish. The cells were then incubated with drugs for 72 h at 37 ° C. At the end of incubation the drug-containing media were decanted, the dishes were rinsed with 4 mL of Hank's Balance Salt Solution (HBSS), 5 mL of fresh medium was added, and the dishes were returned to the incubator for colony formation. The cell colonies were counted using a colony counter after incubation for 7 days.

[1] = test system: A2780 Human Ovarian Carcinoma Xenografts; assay: In vivo evaluation against A2780 ovarian carcinoma xenografts; design: species or system NCr-nude mice; Mean Score: scale not given here; details: for MDS (n): 2.0 g endpoint
Description: In Vivo Evaluation of Antitumor Compounds Against A2780 Human Ovarian Carcinoma Xenografts
The A2780 group mean size range was 237-243 mg. Dosing was initiated on Day 1. […] Treatment groups are detailed in Table 5.

[2] = test system: DU 145 Human Prostrate Carcinoma Xenografts; assay: In vivo evaluation against DU145 prostate carcinoma xenografts
Description: In Vivo Evaluation of Antitumor Compounds Against DU 145 Human Prostrate Carcinoma Xenografts
(§1) Antitumor compounds were prepared in a vehicle of 5% ethanol, 5% Cremophor and 90% isotonic saline in the manner as described for Solution 1 of Example 10. Taxol (paclitaxel; Bristol Meyers Squibb) was obtained as the marketed pharmaceutical drug. The dosing volume was 0.3 ml per 20 g mouse.
Male NCr-nude mice were implanted subcutaneously with 1 mm^3 DU145 prostate carcinoma fragments in the flank and sorted into treatment groups of five mice each. […] Dosing was initiated on Day 1. The antitumor compounds were given i.v. at an estimated maximum tolerated dose (MTD) appropriate for each agent on a qd x 1 schedule (single administration of compound). The i.v. Taxol was given on the qd x 1 schedule as two split doses (one hour between) of 12 mg/kg per split dose (total dose = 24 mg/kg). Taxol was also administered intraperitoneally (i.p.) on a qd x 5 schedule at a daily dose of 18 mg/kg. The vehicle was administered i.v. to control mice in Group 1 on the qd x 1 schedule. The study was terminated on Day 91. Treatment groups are detailed in Table 3.
(§2) The mean days of survival is the number of days after which a neoplasm reached a size of 1.5 g and the animal was euthanized. A complete response is obtained […]. […]

[3] = test system: Panc-1 Human Pancreatic Carcinoma; assay: In vivo evaluation against Panc-1 pancreatic carcinoma xenografts; details: for MDS (n): 1.5 g endpoint
Description: In Vivo Evaluation of Antitumor Compounds Against Panc-1 Human Pancreatic Carcinoma
as §1
Female NCr-nude mice were implanted subcutaneously with 1 mm^3 Panc-1 pancreatic carcinoma fragments in the flank and sorted into treatment groups of six mice each. […] Dosing was initiated on Day 1. The antitumor compounds were given i.v. at an estimated maximum tolerated dose (MTD) appropriate for each agent on a qd x 1 schedule (single administration of compound). The i.v. taxol was given on the qd x 1 schedule as two split doses (one hour between) of 12 mg/kg per split dose (total dose = 24 mg/kg). Taxol was also administered at a dose of 15 mg/kg i.p. on a qd x 5 schedule. The vehicle was administered i.v. to control mice in Group 1 on the qd x 1 schedule. The study was terminated on Day 63. Treatment groups are detailed in Table 9.
as §2, with “The results are summarized in Table 10 and include mean days of survival (MDS), number of toxic deaths, number of survivors, number of complete or partial responses, and number with stable disease. The” for “The”

[4] = test system: VM46 Human Colon Carcinoma; assay: In vivo evaluation against VM46 colon carcinoma xenografts; design: species or system NCr-nude mice; Mean Score: scale not given here
Description: In Vivo Evaluation of Antitumor Compounds Against VM46 Human Colon Carcinoma
The VM46 tumor group mean size range was 181-188 mg. Dosing was initiated on Day 1. […] Taxotere was given i.v. at a dose of 70 mg/kg on a qd x 1 schedule. […] The study was terminated on Day 64. Treatment groups are detailed in Table 11.

[5] = 1781 i.v. qd x 1 at estimated MTD
[6] = Group 4: 60.6 mg/kg i.v. qd x 1, 5 mice, study to Day 60
[7] = Group 4: i.v. qd x 1 at estimated MTD, 5 mice, study to Day 91
[8] = Group 4: 60 mg/kg i.v. qd x 1, 6 mice, study to Day 63
[9] = Group 4: 60 mg/kg i.v. qd x 1, 6 mice, study to Day 64
[10] = Group 2: 24 mg/kg i.v. qd x 1 (two split doses of 12 mg/kg), 5 mice, study to Day 60
[11] = Group 3: 15 mg/kg i.p. qd x 5, 5 mice, study to Day 60
[12] = Group 2: 24 mg/kg i.v. qd x 1 (two split doses of 12 mg/kg), 5 mice, study to Day 91
[13] = Group 3: 18 mg/kg i.p. qd x 5, 5 mice, study to Day 91
[14] = Group 2: 24 mg/kg i.v. qd x 1 (two split doses of 12 mg/kg), 6 mice, study to Day 63
[15] = Group 3: 15 mg/kg i.p. qd x 5, 6 mice, study to Day 63
[16] = number of cases, Taxol 24 mg/kg i.v. qd x 1, six mice
[17] = Group 2: 24 mg/kg i.v. qd x 1 (two split doses of 12 mg/kg), 6 mice, study to Day 64
[18] = Group 3: 15 mg/kg i.p. qd x 5, 6 mice, study to Day 64

## CCOC(=O)O[C@H]1C(=O)[C@@]2(C)[C@H]([C@H](OC(=O)c3ccccc3)[C@]3(O)C[C@H](OC(=O)[C@H](O)[C@H](C=C(C)C)NC(=O)OC(C)(C)C)C(C)=C1C3(C)C)[C@]1(OC(C)=O)CO[C@@H]1C[C@@H]2O [Compound 1781]
HCT116; HCT116, 72 h with drug, colonies counted after 7 days, concentration producing 50% inhibition of colony formation
  IC50: < 1 nM
[1]; [5]
  total response rate: at least 20%
[1]; 1781 i.v. qd x 1 at estimated MTD, five mice treated
  partial responses: 2
[1]; Group 4: 60.6 mg/kg i.v. qd x 1, 5 mice, n=2, study to Day 60
  MDS (n): 38.5 ± 8.3 (2) days
[1]; [6]
  Complete Response: 0
  Mean Score: 6 ± 1.3
  Partial Response: 2
  Stable Disease: 1
  Survivors: 3
  Toxic Deaths: 0
[2]; 1781 72.6 mg/kg i.v. qd x 1, in a number of treated mice prior to death
  weight loss: over 20%
[2]; [7]
  Complete Response: 0
  Mean Score: 0 ± 0
  Partial Response: 0
  Stable Disease: 0
  Survivors: 0
  Toxic Deaths: 5
[3]; [5]
  overall response rate: 66.7%
[3]; Group 4: 60 mg/kg i.v. qd x 1, 6 mice, n=2, study to Day 63
  MDS (n): 59.3 ± 2.9(2) days
[3]; [8]
  Complete Response: 0
  Mean Score: 6.7 ± 1.2
  Partial Response: 4
  Stable Disease: 0
  Survivors: 4
  Toxic Deaths: 0
[3]; i.v. qd x 1, Taxol 24 mg/kg, 1781 at estimated MTD, six mice per group
  Toxic Deaths: no toxic deaths
[3]; mouse, in vivo, iv
  mean group weight loss: minimal
  tolerability: well-tolerated
[4]; 1781 i.v. qd x 1, six mice
  Toxic Deaths: no toxic deaths
[4]; [5]
  response rate: 16.7%
[4]; Group 4: 60 mg/kg i.v. qd x 1, 6 mice, n=5, 1.5 g endpoint, study to Day 64
  MDS (n): 42.2 ± 7.1(5) days
[4]; [9]
  Complete Response: 0
  Mean Score: 3 ± 1.2
  Partial Response: 1
  Stable Disease: 0
  Toxic Deaths: 0
[4]; mouse, in vivo, iv
  tolerability: well-tolerated

## CC(=O)O[C@H]1C(=O)[C@@]2(C)[C@H]([C@H](OC(=O)c3ccccc3)[C@]3(O)C[C@H](OC(=O)[C@H](O)[C@@H](NC(=O)c4ccccc4)c4ccccc4)C(C)=C1C3(C)C)[C@]1(OC(C)=O)CO[C@@H]1C[C@@H]2O [Taxol]
HCT116; Homo sapiens, HCT-116
  IC50: 2.1 nM
[1]; Group 2: 24 mg/kg i.v. qd x 1 (two split doses of 12 mg/kg), 5 mice, n=5, study to Day 60
  MDS (n): 21.9 ± 5.5 (5) days
[1]; [10]
  Complete Response: 0
  Mean Score: 1.8 ± 0.4
  Partial Response: 0
  Stable Disease: 0
  Survivors: 1
  Toxic Deaths: 0
[1]; [11]
  Complete Response: 0
  Mean Score: 0.6 ± 0.6
  Partial Response: 0
  Stable Disease: 0
  Survivors: 0
  Toxic Deaths: 4
[1]; Taxol 15 mg/kg i.p. qd x 5, five mice
  mice succumbed to drug-related side effects: four
[1]; i.v. qd x 1, Taxol 24 mg/kg, Taxotere 70 mg/kg
  increase in survival / survival extension compared to Group 1 controls: 87%
[1]; i.v. qd x 1, Taxol 24 mg/kg, Taxotere 70 mg/kg, 2.0 g cut-off
  MDS: 21.9 days
[1]; number of animals, Taxol 24 mg/kg i.v. qd x 1, Day 61
  Stable Disease: One
[2]; Group 2: 24 mg/kg i.v. qd x 1 (two split doses of 12 mg/kg), 5 mice, n=3, 1.5 g endpoint, study to Day 91
  MDS (n): 37.4 ± 8.9 (3) days
[2]; [12]
  Complete Response: 0
  Mean Score: 2 ± 1
  Partial Response: 0
  Stable Disease: 1
  Survivors: 1
  Toxic Deaths: 1
[2]; [13]
  Complete Response: 0
  Mean Score: 0 ± 0
  Partial Response: 0
  Stable Disease: 0
  Survivors: 0
  Toxic Deaths: 5
[2]; Taxol 18 mg/kg i.p. qd x 5
  weight loss: more than 20%
[2]; Taxol 18 mg/kg i.p. qd x 5, five mice
  mice died of drug-related side effects: five
[2]; Taxol 24 mg/kg i.v. qd x 1
  increase in survival compared to Group 1 controls: 9%
[2]; Taxol 24 mg/kg i.v. qd x 1, 1.5 g endpoint, three of five animals
  MDS: 37.4 days
[3]; Group 2: 24 mg/kg i.v. qd x 1 (two split doses of 12 mg/kg), 6 mice, n=4, study to Day 63
  MDS (n): 34.7 ± 3.4(4) days
[3]; [14]
  Complete Response: 0
  Mean Score: 2.2 ± 0.8
  Partial Response: 0
  Stable Disease: 1
  Survivors: 1
[3]; [15]
  Complete Response: 0
  Mean Score: 1.2 ± 1.2
  Partial Response: 1
  Stable Disease: 0
  Survivors: 1
[3]; Taxol 24 mg/kg i.v. qd x 1, four mice, 1.5 g cut-off
  MDS: 34.7 days
[3]; female, NCr-nude, mouse, in vivo
  Toxic Deaths: 1
[3]; female, NCr-nude, mouse, in vivo, ip, 15 mg/kg
  Toxic Deaths: 4
[3]; [16]
  Stable Disease: one
[4]; Group 2: 24 mg/kg i.v. qd x 1 (two split doses of 12 mg/kg), 6 mice, n=4, 1.5 g endpoint, study to Day 64
  MDS (n): 43.3 ± 3.7 (4) days
[4]; [17]
  Complete Response: 0
  Mean Score: 3.8 ± 1.4
  Partial Response: 1
  Stable Disease: 1
  Toxic Deaths: 0
[4]; Group 3: 15 mg/kg i.p. qd x 5, 6 mice, n=2, 1.5 g endpoint, study to Day 64
  MDS (n): 36.1 ± 12.2(2) days
[4]; [18]
  Complete Response: 0
  Mean Score: 1.8 ± 1.3
  Partial Response: 1
  Stable Disease: 0
  Toxic Deaths: 3
[4]; Taxol 15 mg/kg i.p. qd x 5, six treated animals
  mortalities: three
[4]; i.v. qd x 1, Taxol 24 mg/kg (four mice), Taxotere 70 mg/kg, 1.5 g endpoint
  MDS: 43.3 days
[4]; [16]
  Stable Disease: one
[4]; number of mice, Taxol 24 mg/kg i.v. qd x 1, six mice
  Partial Response: one
